{
  "source": "patent US10912294B2",
  "about": "“Composition for use as pesticide, fertilizer, or both, and uses thereof” (priority 2015, dated 2021)",
  "key": {"[1]": {"tested_on": "Candida albicans ATCC10231", "settings": "E. pinto et al. 2006; cited from earlier work"}, "Microsporum canis FF1": {"tested_on": "Microsporum canis FF1", "settings": "E. pinto et al. 2006; cited from earlier work"}, "[2]": {"tested_on": "Aspergillus fumigatus ATCC46645", "settings": "E. pinto et al. 2006; cited from earlier work"}, "[3]": {"tested_on": "Trichophyton mentagrophytes FF7", "settings": "E. pinto et al. 2006; cited from earlier work"}, "[4]": {"tested_on": "Staphylococcus aureus (ATCC 6538)", "experiment": "Minimum concentration for total bactericidal activity, AOAC method 955.15 (Phenol Coefficient Method)", "format": "cell-based", "settings": "total antimicrobial (bactericidal) activity; incorporated into composition F; contact time 10 minutes"}, "[5]": {"tested_on": "Staphylococcus aureus ATCC43300", "settings": "A. Nostro et al. 2004; cited from earlier work"}, "Microsporum gypseum FF3": {"tested_on": "Microsporum gypseum FF3", "settings": "E. pinto et al. 2006; cited from earlier work"}, "[6]": {"tested_on": "Candida tropicalis ATCC13803", "settings": "E. pinto et al. 2006; cited from earlier work"}, "[7]": {"tested_on": "Staphylococcus aureus ATCC6538", "settings": "R. J. W. Lambert et al. 2001; cited from earlier work"}, "[8]": {"tested_on": "Epidermophyton floccosum FF9", "settings": "E. pinto et al. 2006; cited from earlier work"}, "[9]": {"tested_on": "Staphylococcus epidermidis ATCC12228", "settings": "A. Nostro et al. 2004; cited from earlier work"}, "[10]": {"tested_on": "Aspergillus niger ATCC16404", "settings": "E. pinto et al. 2006; cited from earlier work"}, "[11]": {"tested_on": "Pseudomonas aeruginosa ATCC2730", "settings": "R. J. W. Lambert et al. 2001; cited from earlier work"}, "Trichophyton rubrum FF5": {"tested_on": "Trichophyton rubrum FF5", "settings": "E. pinto et al. 2006; cited from earlier work"}, "[12]": {"settings": "in vivo; cited from earlier work"}, "[13]": {"tested_on": "Treponema phagedaenis-like", "settings": "D. Döpfer et al. 2013; cited from earlier work"}, "[14]": {"tested_on": "E. amylovora 153sm5 (streptomycin-resistant)", "format": "cell-based, Erwinia amylovora", "settings": "streptomycin 100, 250 and 500 ppm; composition 12 at 1, 2.5 and 5%; up to 72 hours at 26° C."}, "E. coli ATCC 25922": {"tested_on": "E. coli ATCC 25922", "experiment": "Sensitivity test on King B agar media", "format": "cell-based", "settings": "streptomycin 100, 250 and 500 ppm; composition 12 at 1, 2.5 and 5%; up to 72 hours at 26° C."}, "[15]": {"tested_on": "E. amylovora 435 (streptomycin-sensitive)", "experiment": "Sensitivity test on King B agar media", "format": "cell-based, Erwinia amylovora", "settings": "streptomycin 100, 250 and 500 ppm; composition 12 at 1, 2.5 and 5%; up to 72 hours at 26° C."}, "[16]": {"tested_on": "E. amylovora 433 (streptomycin-sensitive)", "experiment": "Sensitivity test on King B agar media", "format": "cell-based, Erwinia amylovora", "settings": "streptomycin 100, 250 and 500 ppm; composition 12 at 1, 2.5 and 5%; up to 72 hours at 26° C."}},
  "data": [
    {"smiles": "Cc1ccc(C(C)C)cc1O", "note": "[Carvacrol]", "values": [
      {"measurement": "MIC", "setting": "[1]", "value": 0.016, "unit": "v/v %"},
      {"measurement": "MIC", "setting": "Microsporum canis FF1", "value": 0.004, "unit": "v/v %"},
      {"measurement": "MIC", "setting": "[2]", "value": 0.016, "unit": "v/v %"},
      {"measurement": "MIC", "setting": "[3]", "value": 0.004, "unit": "v/v %"},
      {"measurement": "Minimal Concentration", "setting": "[4]", "value": 0.07, "unit": "v/v %"},
      {"measurement": "MIC", "setting": "[5]", "value": 0.015, "unit": "v/v %"},
      {"measurement": "MIC", "setting": "Microsporum gypseum FF3", "value": 0.004, "unit": "v/v %"},
      {"measurement": "MIC", "setting": "[6]", "value": 0.016, "unit": "v/v %"},
      {"measurement": "MIC", "setting": "[7]", "value": 0.0175, "unit": "v/v %"},
      {"measurement": "MIC", "setting": "[8]", "value": 0.008, "unit": "v/v %"},
      {"measurement": "MIC", "setting": "[9]", "value": 0.03, "unit": "v/v %"},
      {"measurement": "MIC", "setting": "[10]", "value": 0.016, "unit": "v/v %"},
      {"measurement": "MIC", "setting": "[11]", "value": 0.045, "unit": "v/v %"},
      {"measurement": "MIC", "setting": "Trichophyton rubrum FF5", "value": 0.008, "unit": "v/v %"}
    ]},
    {"smiles": "CC(C)=CCCC(C)=CC=O", "note": "[Citral]", "values": [
      {"measurement": "Minimal Concentration", "setting": "[4]", "value": ">1", "unit": "% v/v %"}
    ]},
    {"smiles": "C=CCc1ccc(O)c(OC)c1", "note": "[Eugenol]", "values": [
      {"measurement": "Minimal Concentration", "setting": "[4]", "value": 0.4, "unit": "v/v %"}
    ]},
    {"smiles": "COCC(C)O", "note": "(stereo not shown) [Glycol Ether PM]", "values": [
      {"measurement": "LD50 Oral-rat", "setting": "[12]", "value": "5 210 mg/kg"}
    ]},
    {"smiles": "CCCCCCCCCCCCOS(=O)(=O)[O-].[Na+]", "note": "[Sodium Lauryl Sulfate]", "values": [
      {"measurement": "LD50 Oral-rat", "setting": "[12]", "value": 1288, "unit": "mg/kg"}
    ]},
    {"smiles": "Cc1ccc(C(C)C)c(O)c1", "note": "[Thymol]", "values": [
      {"measurement": "MIC", "setting": "[1]", "value": 0.016, "unit": "v/v %"},
      {"measurement": "MIC", "setting": "[13]", "value": 0.0006, "unit": "v/v %"},
      {"measurement": "MIC", "setting": "Microsporum canis FF1", "value": 0.008, "unit": "v/v %"},
      {"measurement": "MIC", "setting": "[2]", "value": 0.016, "unit": "v/v %"},
      {"measurement": "MIC", "setting": "[3]", "value": 0.016, "unit": "v/v %"},
      {"measurement": "Minimal Concentration", "setting": "[4]", "value": 0.07, "unit": "v/v %"},
      {"measurement": "MIC", "setting": "[5]", "value": 0.06, "unit": "v/v %"},
      {"measurement": "MIC", "setting": "Microsporum gypseum FF3", "value": 0.016, "unit": "v/v %"},
      {"measurement": "MIC", "setting": "[6]", "value": 0.016, "unit": "v/v %"},
      {"measurement": "MIC", "setting": "[7]", "value": 0.014, "unit": "v/v %"},
      {"measurement": "MIC", "setting": "[8]", "value": 0.016, "unit": "v/v %"},
      {"measurement": "MIC", "setting": "[9]", "value": 0.06, "unit": "v/v %"},
      {"measurement": "MIC", "setting": "[10]", "value": 0.016, "unit": "v/v %"},
      {"measurement": "MIC", "setting": "[11]", "value": 0.0385, "unit": "v/v %"},
      {"measurement": "MIC", "setting": "Trichophyton rubrum FF5", "value": 0.016, "unit": "v/v %"}
    ]},
    {"smiles": "[H]/N=C(/N)N[C@H]1[C@H](O)[C@@H](O)[C@H](O[C@@H]2O[C@@H](C)[C@](O)(C=O)[C@H]2O[C@@H]2O[C@@H](CO)[C@H](O)[C@@H](O)[C@@H]2NC)[C@@H](N/C(N)=N\\[H])[C@@H]1O", "note": "[streptomycin]", "values": [
      {"measurement": "Bacterial growth on King B agar media containing the agent", "setting": "[14]", "value": "not inhibited"},
      {"measurement": "Bacterial growth on King B agar media containing the agent", "setting": "E. coli ATCC 25922", "value": "did not grow"},
      {"measurement": "Bacterial growth on King B agar media containing the agent", "setting": "[15]", "value": "did not grow"},
      {"measurement": "Bacterial growth on King B agar media containing the agent", "setting": "[16]", "value": "did not grow"}
    ]}
  ]
}
